According to PMC10592352 (Cell chemical biology, 2023):

Columns and labels:
[1] = ES1e mice, oral, 40 mg/kg; cited from earlier work
[2] = Concentration reached in aqueous buffer for co-crystallization; format: physicochemical; conditions: aqueous buffer with 10% DMSO
[3] = test system: human PBMCs, small airway epithelial cells (hSEAC), neural crest stem cells (7SM0032); assay: Growth of nonmalignant cells; format: cell-based
[4] = test system: MDA-MB-468 breast cancer xenograft; assay: Xenograft tumor growth; conditions: MDA-MB-468 xenograft, 40 mg/kg twice daily, oral
[5] = test system: H82 small-cell lung cancer xenograft; assay: Xenograft tumor growth; conditions: 40 mg/kg twice daily, oral
[6] = test system: SK-N-BE(2)c neuroblastoma xenograft; assay: Xenograft tumor growth; conditions: 40 mg/kg twice daily
[7] = GLP-controlled toxicity study; parameters: species or system mice; conditions: mouse, in vivo
[8] = GLP-controlled toxicity study; parameters: species or system dogs; conditions: dog, in vivo
[9] = Oral PK study in mice; format: in vivo, ES1e/SCID mice
[10] = target: PCNA (Homo sapiens, UniProt P12004); assay: Thermal denaturation; format: binding; conditions: dose-dependent, largest shift
Sequence of PCNA (P12004 whole entry): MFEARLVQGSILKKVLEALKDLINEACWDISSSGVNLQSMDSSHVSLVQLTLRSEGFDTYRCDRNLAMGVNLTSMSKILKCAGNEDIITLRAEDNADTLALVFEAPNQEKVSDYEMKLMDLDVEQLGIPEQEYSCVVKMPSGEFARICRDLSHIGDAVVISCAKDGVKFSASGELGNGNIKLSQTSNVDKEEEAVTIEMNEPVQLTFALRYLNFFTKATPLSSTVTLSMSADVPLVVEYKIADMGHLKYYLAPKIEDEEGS

[11] = test system: more than 70 cancer cell lines; assay: Growth inhibition across cancer cell lines; format: cell-based; conditions: read-out: median concentration to achieve 50% growth inhibition (GI50)
[12] = test system: Salmonella tester strains TA98 and TA100; assay: Ames test; conditions: TA98 frameshift, TA100 base pair substitution

For `O=C(CNC(=O)c1cccc2ccccc12)Nc1ccccc1Oc1ccccc1` [AOH1160], the half-life [1] is listed as 3.4 h.
In the case of `COc1cccc(Oc2ccccc2NC(=O)[C@H](CCC(=O)O)NC(=O)c2cccc3ccccc23)c1` [AOH1996LE], the “concentration in aqueous buffer” value [2] is reported as 4000 µM.
With `COc1cccc(Oc2ccccc2NC(=O)CNC(=O)c2cccc3ccccc23)c1` [AOH1996] the “concentration not significantly toxic to nonmalignant cells” value [3] was “at least 10 μM”, the “tumor burden versus vehicle” value [4] was “significantly reduced the tumor burden” and the “tumor burden versus vehicle” value [5] was “significantly reduced the tumor burden”. For the same compound, the “tumor burden versus vehicle” value ([6]; SK-N-BE(2)c xenograft, oral) was “significantly reduced the tumor burden”, the “death and body weight in tumor studies” value ([6]; xenograft-bearing ES1e/SCID mice) was “did not cause any death or significant weight loss” and the NOAEL at 4 weeks [7] was ≥ 250 mg/kg. The NOAEL at 4 weeks [8] was 75 mg/kg, the “absorption into the circulatory system” value ([9]; animals, data not shown) was ~90% and the “increase in area under the curve (AUC) versus AOH1160” value ([9]; mice, 40 mg/kg) was ~4%. For the same compound, the “increase in half-life versus AOH1160” value ([9]; mice, 40 mg/kg) was ~ 27%, the “increase in peak concentration (Cmax) versus AOH1160” value ([9]; mice, 40 mg/kg) was ~40% and the “shift of protein melting curves” value [10] was ≤ 1.5 °C. The GI50 [11] was ~300 nM and the “mutagenicity in Ames test” value [12] was “does not cause frameshift or base pair substitution”.
